Results published in ChEMBL document CHEMBL2331360, “QSAR studies of sulfamate and sulfamide inhibitors targeting human carbonic anhydrase isozymes I, II, IX and XII” (Bioorg Med Chem, 2013).

Columns and labels:
[1] = target: Carbonic anhydrase 2 (Homo sapiens) (UniProt P00918)
Description: Inhibition of human carbonic anhydrase-2

[2] = target: Carbonic anhydrase 9 (Homo sapiens) (UniProt Q16790)
Description: Inhibition of human carbonic anhydrase-9

Row | Structure (SMILES) | log(43000/Ki) [1] | log(43000/Ki) [2]
1 | NS(=O)(=O)Nc1ccc(NC(=O)NC2CCCCC2)cc1 | 2.08 | 2.55
2 | COc1ccc(C)cc1NC(=O)Nc1ccc(NS(N)(=O)=O)cc1 | 1.99 | 3.03
3 | Cc1cc(C)cc(NC(=O)Nc2ccc(NS(N)(=O)=O)cc2)c1 | 1.8 | 3.63
4 | CCCCOc1ccc(NC(=O)Nc2ccc(NS(N)(=O)=O)cc2)cc1 | 2.14 | 3.43
5 | COc1ccc(NC(=O)Nc2ccc(NS(N)(=O)=O)cc2)c(C)c1 | 2.14 | 3.31
6 | NS(=O)(=O)Oc1ccc(NC(=O)NC23CC4CC(CC(C4)C2)C3)cc1 | 1.96 | 3.31

The next lines start with the values.

Row | log(43000/Ki) [1] | log(43000/Ki) [2] | Structure (SMILES)
7 | 2.13 | 3 | NS(=O)(=O)Nc1ccc(NC(=O)Nc2ccc(Cl)cc2)cc1
8 | 2.44 | 3.59 | NS(=O)(=O)Nc1ccc(NC(=O)NCCc2ccccc2)cc1
9 | 2.1 | 3.35 | NS(=O)(=O)Nc1ccc(NC(=O)NCc2ccco2)cc1
10 | 2.47 | 3.63 | NS(=O)(=O)Nc1ccc(NC(=O)NCc2ccccc2)cc1
11 | 2.01 | 3.43 | NS(=O)(=O)Nc1ccc(NC(=O)Nc2cccc([N+](=O)[O-])c2)cc1
12 | 1.8 | 2.64 | CC(C)c1ccccc1NC(=O)Nc1ccc(NS(N)(=O)=O)cc1
13 | 1.68 | 2.47 | NS(=O)(=O)Nc1ccc(NC(=O)Nc2ccccc2-c2ccccc2)cc1
14 | 2.02 | 3.35 | CC(NC(=O)Nc1ccc(NS(N)(=O)=O)cc1)c1cccc2ccccc12 (stereo not drawn)
